From article PMC11432330, “Novel Drug-like HsrA Inhibitors Exhibit Potent Narrow-Spectrum Antimicrobial Activities against Helicobacter pylori” (International Journal of Molecular Sciences, 2024)
≈ marks a conversion by molar mass, not a printed value.

Key:
H. pylori HsrA = assay: Fluorescence-based thermal shift assay (HTS of Maybridge HitFinder library) for HsrA ligands; assay type: binding, Helicobacter pylori; details: 10 µM HsrA, 250 μM compound, vs DMSO controls
Procedure: High-throughput screening (HTS) of the Maybridge HitFinder^TM chemical library for H. pylori HsrA ligands was assessed by a fluorescence-based thermal shift assay, according to previously described procedures. Briefly, a reaction mixture containing 50 mM Tris-HCl (pH 8), 150 mM NaCl, 10% glycerol, 5 mM DTT, SYPRO® Orange ready-to-use fluorescent stain (Thermo Fisher Scientific) at a final concentration of 10 ×, and 10 µM HsrA was freshly prepared. Next, 90 μL was dispensed in every well of V-shape 96-well plates ABgene^TM Thermo-Fast^TM 96 (Thermo Fisher Scientific). Wells of columns 1 and 12 received 10 μL of DMSO (vehicle) and were used as the reference controls. The rest of the wells (columns 2 to 11) received 2.5 μL of four different compounds from the HitFinder library (250 μM as final concentration each). The unfolding curve corresponding to each well was registered from 25 °C to 75 °C in 1 °C steps using an Mx3005P™ qPCR System (Agilent Technologies, Inc., Santa Clara, CA, USA), and analyzed by Origin 7.0 (OriginLab, Northampton, MA, USA) using a homemade script that determined the midpoint temperature of unfolding (Tm).

E. coli ATCC 25922 = assay: MIC/MBC according to EUCAST guidelines; assay type: cell-based; details: Escherichia coli, ATCC25922
Procedure: (§1) The antimicrobial activities of the selected compounds against several Gram-negative and Gran-positive representative species of normal human microbiota were determined according to the EUCAST guidelines. Briefly, standardized inoculums (0.5 McFarland) were freshly prepared from overnight Mueller–Hinton agar plates of reference strains E. coli ATCC 25922, K. pneumonia ATCC 700603, E. faecalis ATCC 29212, S. aureus ATCC 29213, S. epidermidis ATCC 12228, and S. agalactiae ATCC 12386. Next, bacterial suspensions adjusted to 5 × 10^5 CFU/mL in Mueller–Hinton broth were exposed to a range of concentrations from 64 to 0.031 mg/L of the selected compounds. DMSO and conventional antibiotics LVX and AMP were included as controls. […] Experiments were performed twice in triplicate.

E. faecalis ATCC 29212 = assay: MIC/MBC according to EUCAST guidelines; assay type: cell-based; details: Enterococcus faecalis, ATCC29212
Procedure: as §1

S. agalactiae ATCC 12386 = assay: MIC/MBC according to EUCAST guidelines; assay type: cell-based; details: Streptococcus agalactiae, ATCC12386
Procedure: as §1

S. aureus ATCC 29213 = assay: MIC/MBC according to EUCAST guidelines; assay type: cell-based; details: Staphylococcus aureus, ATCC29213
Procedure: as §1

[1] = tested on: S. epidermidis ATCC 12228; assay: MIC/MBC according to EUCAST guidelines; assay type: cell-based; details: Staphylococcus epidermidis, ATCC12228
Procedure: as §1

[2] = tested on: H. pylori strain ATCC 700392; assay: Time-kill kinetic assay; assay type: cell-based, Helicobacter pylori; details: 4 × MIC, 10^4 CFU/mL
Procedure: Time-kill kinetics of selected HsrA inhibitors were carried out as previously described, with slight modifications. Briefly, fresh grown cells of H. pylori strain ATCC 700392 were resuspended in BHI + FBS at 1.0 × 10^4 CFU/mL and exposed to 4 × MIC of each compound. Bacteria exposed to DMSO (vehicle) instead of the HsrA inhibitors were included as a control. All cultures were incubated at 37 °C under microaerobic conditions, and aliquots were taken after 0, 2, 4, 8, and 24 h of exposure for CFU determination. Experiments were performed twice in triplicate. Results were presented as log10 CFU/mL versus hours of exposure. Differences in H. pylori survival were subjected to statistical analysis by using the Mann–Whitney U test.

H. pylori ATCC 700392 = assay: Checkerboard assay with first-line antibiotics; assay type: cell-based, Helicobacter pylori
Procedure: Potential synergisms between the selected HsrA inhibitors and first-line antibiotics were evaluated by using checkerboard assays, as previous described. Briefly, the antimicrobials to be tested were twofold serially diluted in BHI + FBS using independent sterile microtiter plates. Then, concentration gradients from two antimicrobials were aseptically mixed at equal volumes in a new microtiter plate, resulting in a matrix of 77 unique combinations of both compounds. Next, freshly prepared inoculum of H. pylori ATCC 700392 adjusted at 2 × 10^6 CFU/mL in BHI+ FBS were added to all wells, and plates were incubated for 72 h at 37 °C under microaerophilic conditions. […] The fractional inhibitory concentration index (FICI) for each antimicrobial combination was calculated as previously described. Values of FICI ≤ 0.5, 0.5 < FICI ≤ 1, 1 < FICI ≤ 4, and FICI > 4 were considered as indicative of synergistic, additive, neutral, or antagonist interactions, respectively.

[3] = Cytotoxicity, PrestoBlue cell viability assay; assay type: cell-based; details: human; HeLa cells, 24 h exposure; read-out: CC50 (50% cytotoxic concentration)
Procedure: (§2) The in vitro toxicity of the selected HsrA inhibitors was determined on HeLa cells by the PrestoBlue^TM assay, as previously described. Briefly, cells were cultured at 37 °C with 5% CO2 in Dulbecco’s modified Eagle’s medium containing 10% fetal bovine serum, 1% L-GlutaMAX^TM solution (Thermo Fisher Scientific), and 1% penicillin/streptomycin. When 80% confluence was achieved, cells were detached, counted, seeded in 96-well microplates at a density of 10,000 cells per well, and allowed to adhere for 24 h. Next, the mammalian cells were exposed to selected compounds at a range of 0.125 to 128 mg/L. After 24 h of exposure, the cell viability was measured with the PrestoBlue^TM cell viability reagent (Thermo Fisher Scientific), according to the manufacturer’s instructions. Experiments were performed twice in triplicate. The 50% cytotoxic concentration (CC50) of each compound was calculated by regression analysis using Microsoft Excel. Therapeutic index (TI) values were calculated as the ratio of the CC50 to the higher MIC observed for each compound [111].

HeLa cells = assay: Cytotoxicity, PrestoBlue cell viability assay; assay type: cell-based; details: HeLa cells, 8 mg/L, 24 h
Procedure: as §2

[4] = in combination with CLR (clarithromycin)
[5] = in combination with LVX (levofloxacin)
[6] = in combination with MTZ (metronidazole)

Compound	MBC (E. coli ATCC 25922) [µg/mL]	MIC (E. coli ATCC 25922) [µg/mL]	MBC (E. faecalis ATCC 29212) [µg/mL]	MIC (E. faecalis ATCC 29212) [µg/mL]	MBC (S. agalactiae ATCC 12386) [µg/mL]	MIC (S. agalactiae ATCC 12386) [µg/mL]	MBC (S. aureus ATCC 29213) [µg/mL]	MIC (S. aureus ATCC 29213) [µg/mL]	MBC [1] [µg/mL]	MIC [1] [µg/mL]	Exposure time after which 10^4 H. pylori cells were completely killed [2] [h]	FICI (H. pylori ATCC 700392; [4])	FICantibiotic (H. pylori ATCC 700392; [4])	FICinhibitor (H. pylori ATCC 700392; [4])	FICI (H. pylori ATCC 700392; [5])	FICantibiotic (H. pylori ATCC 700392; [5])	FICinhibitor (H. pylori ATCC 700392; [5])	FICI (H. pylori ATCC 700392; [6])	FICantibiotic (H. pylori ATCC 700392; [6])	FICinhibitor (H. pylori ATCC 700392; [6])	further results
CSc1cccc(NC(=S)NCCNc2c([N+](=O)[O-])cc(C(F)(F)F)cc2[N+](=O)[O-])c1 [Ligand IV]	> 64	> 64	> 64	> 64	> 64	> 64	> 64	> 64	> 64	> 64	4	2	1	1	2	1	1	2	1	1	ΔTm (upshift of midpoint temperature of unfolding of HsrA) (H. pylori HsrA): 16 °C; CC50 at 24 h [3]: 135 µg/mL (≈ 284 µM); Cytotoxicity at 8 mg/L (HeLa cells): completely safe
N#Cc1cnn(-c2ccc(C(F)(F)F)cc2[N+](=O)[O-])c1N [Ligand I]	> 64	> 64	> 64	> 64	64 (≈ 215 µM)	32 (≈ 108 µM)	> 64	> 64	> 64	> 64	8	2	1	1	2	1	1	0.625	0.125	0.5	Interaction (H. pylori ATCC 700392; [4]): Neutral (no interaction or neutral (FICI > 1 to ≤4)); Interaction (H. pylori ATCC 700392; [5]): Neutral (no interaction or neutral (FICI > 1 to ≤4)); Interaction (H. pylori ATCC 700392; [6]): Additive (additive (FICI > 0.5 to ≤1)); CC50 at 24 h [3]: 119 µg/mL (≈ 401 µM); Cytotoxicity at 8 mg/L (HeLa cells): completely safe
NC(=NOC(=O)Nc1ccc(Cl)cc1)c1csc([N+](=O)[O-])c1 [Ligand V, N′-{[(4-chloroanilino)carbonyl]}oxy-5-nitrothiophene-3-carboximidamide]	> 64	> 64	> 64	> 64	> 64	> 64	> 64	> 64	> 64	> 64	2	0.56	0.5	0.06	2	1	1	0.625	0.125	0.5	Interaction (H. pylori ATCC 700392; [5]): Neutral (no interaction or neutral (FICI > 1 to ≤4)); CC50 at 24 h [3]: 183 µg/mL (≈ 538 µM); Cytotoxicity at 8 mg/L (HeLa cells): completely safe
